Results taken from patent publication US20220331371A1, “DEVELOPMENT OF EMBRYONIC-LIKE TISSUE FROM STEM CELLS” (The Regents of the University of Michigan, priority 2019, published 2022).

Experiments:
[1] = system: human ES cells co-cultured with Transwell-AMLCs; assay: Transwell co-culture assay of AMLCs and human ES cells; assay type: cell-based; details: 5 μM in Transwell co-culture, 48 h
Experimental: Immunocytochemistry. hPSCs were fixed in 4% paraformaldehyde (PFA; buffered in 1× PBS) for 12 h, and permeabilized in 0.1% SDS solution (sodium dodecyl sulphate, dissolved in PBS) for another 3 h. Samples were then blocked in 4% donkey serum (Sigma-Aldrich) at 4° C. for 24 h, followed by incubation with primary antibody solutions at 4° C. for another 24 h. Samples were then labelled with donkey-raised secondary antibodies (1:500 dilution) at 4° C. for 24 h, 4,6-diamidino-2-phenylindole (DAPI; Thermo Fisher Scientific) was used for counterstaining cell nuclei. Alexa Fluor dye-conjugated WGA (Thermo Fisher Scientific) and phalloidin (Invitrogen) were used for visualization of cell membrane and actin microfilaments, respectively. Both primary and secondary antibodies were prepared in 4% donkey serum supplemented with 0.1% NaN3. Seventy microlitre antibody solutions were added to each medium reservoir for immunostaining. The asymmetric embryonic-like sac structure was assessed by immunocytochemistry to confirm molecular asymmetry at t=36 h (for P-ELS: co-staining for TFAP2A and T; for A-ELS: co-staining for TFAP2A and NANOG). In situ hybridization. […] For morphogenetic quantification, bright-field or phase-contrast images were acquired using a Zeiss Observer Z1 microscope (Carl Zeiss MicroImaging) equipped with a monochrome CCD camera (AxioCam, Carl Zeiss MicroImaging). […]

[2] = system: PrePS-EPI-like cells in P-ELS; assay: Posterior primitive streak-like cell development in P-ELS with antagonists in the induction channel; assay type: cell-based, human
Source text: Cell lines. hPSC lines used in this study include H1 human ES cell (WA01, WiCell; NIH registration number: 0043), H9 human ES cell (WA09, WiCell; NIH registration number: 0062) and 1196a (a human iPSC line from the University of Michigan Pluripotent Stem Cell Core31). All hPSC lines have been authenticated by original sources as well as in-house by immunostaining for pluripotency markers and successful differentiation to the three germ layers. All hPSC lines are maintained in a feeder-free system for at least ten passages and authenticated as karyotypically normal. Karyotype analysis was performed by Cell Line Genetics. All hPSC lines are tested negative for mycoplasma contamination (LookOut Mycoplasma PCR Detection Kit, Sigma-Aldrich). Cell culture. hPSCs were maintained in a standard feeder-free culture system using mTeSR medium (mTeSR; STEMCELL Technologies) or TeSR-E8 medium (Essential 8 or E8; STEMCELL Technologies) and lactate dehydrogenase-elevating virus (LDEV)-free, human ES cell-qualified reduced growth factor basement membrane matrix Geltrex (Thermo Fisher Scientific; derived from Engelbreth-Holm-Swarm tumors similarly to Matrigel). Cell cultures were visually examined during each passage to ensure absence of spontaneously differentiated, mesenchymal-like cells in culture. All hPSCs were used before reaching P70. Device fabrication. The microfluidic device consists of a polydimethylsiloxane (PDMS) structure layer bonded to a coverslip. The PDMS structure layer is made by mixing PDMS curing agent and base polymer (Sylgard 184; Dow Coming) at a ratio of 1:10 before casting PDMS prepolymer onto a microfabricated silicon mold and baking at 110° C. for 40 min. Medium reservoirs (8 mm in diameter) and gel-loading ports (1.2 mm in diameter) were then punched into the PDMS structure layer using Harris Uni-Core punch tools (Ted Pella). After cleaning with ethanol and air plasma activation, the PDMS structure layer was bonded to a coverslip before baking at 80° C. overnight. Before usage, the microfluidic device was sterilized under UV light for 30 min. […]

Cc1ccc2nc(NC(=O)CSc3nc4c(c(=O)n3-c3ccccc3)SCC4)sc2c1 [IWP2]
Differentiation of posterior primitive streak-like cells [1]: inhibited | Inhibition of induction of MeLC in posteriorized embryonic-like sac ([2]; IWR1 10 μM or IWP2 5 μM): inhibited | Inhibition of PrePS-EPI-like cell development ([2]; supplemented in the induction channel (IWP2 5 μM, IWR1 10 μM, noggin 50 ng ml^−1), BMP4 in cell-loading channel): completely inhibited
